Test results published in publication PMC9539280 (Advanced Science, 2022).
Counter-ions that a name gives are not always drawn. Like-named read-outs stand apart in the source and are kept apart here.

Experiments:
[1] = cited from earlier work
[2] = cited from earlier work; for Cardiotoxic effects: reported clinical cardiotoxic effects of the repurposed drug, 10a,b, 10c, 41, 42
hCMs [3] = experiment: Spontaneous calcium transient measurement (Fluo-4) in hCMs; conditions: 6 days; for calcium transient amplitude: escalating concentrations (1-20 μM)
[4] = system: hEHTs (human engineered heart tissues); experiment: TUNEL/α-actinin staining of hEHTs; conditions: for toxicity to hEHTs: 2 × 10^−6 and 5 × 10^−6 M for 3 days
[5] = system: hCMs (human pluripotent stem cell-derived cardiomyocytes); experiment: Cytotoxicity assay, calcein-AM/PI double staining, relative cell viability; type: cell-based; conditions: for cell viability of hCMs: 6 days, escalating concentrations (0.03-3 or 1-30 × 10^−6 M), calcein-AM/PI; for effects on normal hCMs (viability, apoptosis, sarcomere organization): absence of remdesivir, 3 μM and 10 μM
Method: (§1) hCMs were dissociated with 0.25% trypsin/EDTA (25200072, Gibco) and then seeded into 384‐well plates at the density of 8 × 10^3 cells per well. 24 h after seeding, cells were exposed to the drugs at the indicated concentrations for 6 days. Culture media were fully changed every 3 days with new drug supplementation. After drug treatment, cells were stained with calcein‐AM/PI/Hoechst for 20 min using calcein‐AM/PI double staining kit (C542, DOJINDO). Images were captured by the Operetta CLS High‐Content Analysis System (PerkinElmer). Number of live cells (calcein‐AM+/PI‐) and dead cells (PI+) was quantified by using the Harmony 4.9 software (PerkinElmer). Number of live cells was used to calculate the “relative cell viability” as follows (1) relarivecellviability=numberoflivecellsineachtreatment/numberoflivecellsinDMSOcontrol×100%

hCMs [6] = experiment: Calcium measurement in hCMs under electrical field stimulation
hCMs [7] = experiment: Sarcomere organization by α-actinin immunostaining in hCMs; conditions: 6 days
hCMs [8] = experiment: TUNEL apoptosis assay in hCMs; conditions: 6 days
hCMs [9] = experiment: Mitochondrial (MitoSox) and intracellular (DCFH-DA) ROS measurement in hCMs; type: cell-based, human; conditions: remdesivir 10 μM, 4 or 6 days; for could alter the level of ROS in hCMs when co-stimulated with remdesivir: Asta 10 μM, Vc 50 μg/ml, Vb1 10 μg/ml, NAC 1 mM, GSH 25 μg/ml
Method: Mitochondrial‐associated ROS and intracellular ROS were measured using MitoSox Red Mitochondrial Superoxide Indicator (M‐36008, ThermoFisher) and DCFH‐DA (S0033S, Beyotime), respectively. For mitochondrial‐associated ROS measurement, hCMs were loaded with 4 × 10^−6 M MitoSox dye in Hanks' balanced salt solution buffer for 15 min at 37 °C and washed twice with PBS. The MitoSox fluorescence (excitation/emission = 510/580 nm) was detected and quantified by the Operetta CLS High‐Content Analysis System. For intracellular ROS measurement, hCMs were loaded with 10 × 10^−6 M DCFH‐DA in serum‐free medium for 20 min at 37 °C and washed twice with serum‐free medium. The DCFH fluorescence (excitation/emission = 488/525 nm) was detected and quantified by the Operetta CLS High‐Content Analysis System.

[10] = system: hEHTs (human engineered heart tissues); experiment: Contractile force / spontaneous contractility of hEHTs
hCMs [11] = system: hCMs; parameters: method as in PMID 34142159; conditions: ref 25a; cited from earlier work
[12] = system: mitochondrial permeability transition pore; conditions: not told; cited from earlier work
remdesivir-treated hCMs = experiment: High-throughput screening and validation of compounds protective against remdesivir (cell viability); type: cell-based, human; conditions: for remdesivir-induced cardiotoxicity (cell viability), protection: 10 × 10^−6 or 25 × 10^−6 M remdesivir for 6 days with co-administration
Method: as §1
hCMs were seeded into 384‐well plates at a density of 8 × 10^3 cells per well. 24 h after seeding, the cells were treated with either 25 × 10^−6 M remdesivir alone or remdesivir with the chemicals from a Bioactive Compound Library (Topscience) consisted of 2464 natural compounds and US FDA‐approved drugs for 6 days. Chemicals at the concentration of 5 × 10^−6 M were transferred to the plates by using a Tecan Freedom EVO 150 liquid handler.

[13] = read-out: C max, maximum plasma concentration, ref U.S. FDA or published literature
[14] = spontaneous, escalating concentrations (lopinavir: high dosage only)
[15] = 2 × 10^−6 M remdesivir and 2 × 10^−6 M astaxanthin for 2 days

C[C@H]1[C@H](OC(=O)CCC(=O)O)O[C@@H]2O[C@@]3(C)CC[C@H]4[C@H](C)CC[C@@H]1[C@@]24OO3 [Artesunate, artesunate]
Cmax ([1]; in vivo): 0.17 µM

CC[C@H]1OC(=O)[C@H](C)[C@@H](O[C@H]2C[C@@](C)(OC)[C@@H](O)[C@H](C)O2)[C@H](C)[C@@H](O[C@@H]2O[C@H](C)C[C@H](N(C)C)[C@H]2O)[C@](C)(O)C[C@@H](C)CN(C)[C@H](C)[C@@H](O)[C@]1(C)O [Azithromycin, azithromycin]
Cmax [1, 13]: 0.67 µM
Cardiotoxic effects [2]: Ventricular arrhythmias^[ [42] ^]

CCS(=O)(=O)N1CC(CC#N)(n2cc(-c3ncnc4[nH]ccc34)cn2)C1 [Baricitinib, baricitinib]
Cmax [1, 13]: 3.69 µM

Cc1c(-c2ccc(-c3ccccc3F)cc2)nc2ccc(F)cc2c1C(=O)O [Brequinar, brequinar]
Cmax ([1]; in vivo): 16 µM

CCN(CC)CCCC(C)Nc1ccnc2cc(Cl)ccc12 (stereo not shown) [Chloroquine, chloroquine]
Cmax [1, 13]: 1.17 µM

CC(C)CN(C[C@@H](O)[C@H](Cc1ccccc1)NC(=O)O[C@H]1CO[C@H]2OCC[C@H]21)S(=O)(=O)c1ccc(N)cc1 [Darunavir, darunavir]
Cmax [1, 13]: 12.7 µM

NC(=O)c1nc(F)c[nH]c1=O [Favipiravir, favipiravir]
Cmax ([1]; in vivo): 115 µM

COCCCC/C(=N\OCCN)c1ccc(C(F)(F)F)cc1 [Fluvoxamine, fluvoxamine]
Cmax [1, 13]: 0.73 µM

CCN(CCO)CCCC(C)Nc1ccnc2cc(Cl)ccc12 (stereo not shown) [Hydroxychloroquine, hydroxychloroquine]
Cmax ([1]; in vivo): 1.35 µM
Cardiotoxic effects [2]: QTc prolongation^[ [41] ^]

Cc1cccc(C)c1OCC(=O)N[C@@H](Cc1ccccc1)[C@@H](O)C[C@H](Cc1ccccc1)NC(=O)[C@H](C(C)C)N1CCCNC1=O [Lopinavir, lopinavir]
Cmax ([1]; in vivo): 42.1 µM
calcium transient amplitude (hCMs [3]; spontaneous): tended to decrease
time to 50% decay of the calcium transients (hCMs [3]; [14]): significantly increased
time to peak of the calcium transients (hCMs [3]; [14]): significantly increased
toxicity to hEHTs [4]: toxic to hEHTs
cell viability of hCMs [5]: dose‐dependent decrease
intracellular calcium handling properties of hCMs (hCMs [6]): impair
sarcomere organization of hCMs (hCMs [7]): sarcomeric disarray
apoptosis of hCMs (TUNEL) (hCMs [8]): increased apoptosis

C[C@H]1C[C@@H]2[C@H]([C@@H](O)C[C@@]3(C)[C@H]2CC[C@]3(O)C(=O)CO)[C@@]2(C)C=CC(=O)C=C12 [Methylprednisolone, methylprednisolone]
Cmax ([1]; in vivo): 1.26 µM

CC(C)C(=O)OC[C@H]1O[C@@H](n2ccc(NO)nc2=O)[C@H](O)[C@@H]1O [Molnupiravir, molnupiravir]
Cmax ([1]; in vivo): 10 to 15 µM

CC(C)(C)[C@H](NC(=O)C(F)(F)F)C(=O)N1C[C@H]2[C@@H]([C@H]1C(=O)N[C@H](C#N)C[C@@H]1CCNC1=O)C2(C)C [Nirmatrelvir, nirmatrelvir]
Cmax ([1]; in vivo): 6.66 µM

CC(=O)Oc1ccccc1C(=O)Nc1ncc([N+](=O)[O-])s1 [Nitazoxanide, nitazoxanide]
Cmax ([1]; in vivo): 17.5 µM

CC(=O)N[C@@H](CS)C(=O)O [N‐acetylcysteine]
could alter the level of ROS in hCMs when co-stimulated with remdesivir (hCMs [9]): neither

CC1(C)C(=O)N(c2ccc(C#N)c(C(F)(F)F)c2F)C(=S)N1c1ccc(CCCc2ncco2)nc1 [Proxalutamide, proxalutamide]
Cmax [1, 13]: 29 µM

CCC(CC)COC(=O)[C@H](C)N[P@](=O)(OC[C@H]1O[C@@](C#N)(c2ccc3c(N)ncnn23)[C@H](O)[C@@H]1O)Oc1ccccc1 [Remdesivir, remdesivir]
Cmax [1, 13]: 9.03 µM
Cardiotoxic effects [2]: Cardiac arrest,^[ [10a,b] ^] heart failures,^[ [10c] ^] arrhythmias^[ [10c] ^]
hEHT function (tissue level cardiotoxicity) [10]: weaken hEHT function
abnormal beating of hEHTs (spontaneous contractility) ([10]; 2 × 10^−6 or 5 × 10^−6 M for 3 days): more severe
passive force of hEHTs ([10]; 3 days): increases of the passive force
contractile force of hEHTs ([10]; progressive stretch 0-12%, 3 days): much lower
toxicity to hEHTs [4]: toxic to hEHTs
cell viability of hCMs [5]: dose‐dependent decrease
intracellular calcium handling properties of hCMs (hCMs [6]): impair
sarcomere organization of hCMs (hCMs [7]): sarcomeric disarray
ROS level in hCMs (hCMs [9]; MitoSox and DCFH-DA): did not alter
apoptosis of hCMs (TUNEL) (hCMs [8]): increased apoptosis
ROS levels in hCMs (hCMs [11]): does not alter
mitochondrial fragmentation (hCMs [11]): induce mitochondrial fragmentation
mitochondrial respiration (hCMs [11]): suppress mitochondrial respiration

CC(C)c1nc(CN(C)C(=O)N[C@H](C(=O)N[C@@H](Cc2ccccc2)C[C@H](O)[C@H](Cc2ccccc2)NC(=O)OCc2cncs2)C(C)C)cs1 [Ritonavir, ritonavir]
Cmax ([1]; in vivo): 1.32 µM
Cardiotoxic effects [2]: QTc prolongation and arrhythmias^[ [9] ^]
calcium transient amplitude (hCMs [3]; spontaneous): tended to decrease
toxicity to hEHTs [4]: toxic to hEHTs
intracellular calcium handling properties of hCMs (hCMs [6]): impair
sarcomere organization of hCMs (hCMs [7]): sarcomeric disarray
apoptosis of hCMs (TUNEL) (hCMs [8]): increased apoptosis

N#CC[C@H](C1CCCC1)n1cc(-c2ncnc3[nH]ccc23)cn1 [Ruxolitinib, ruxolitinib]
Cmax ([1]; in vivo): 7.1 µM

C[C@@H]1CCN(C(=O)CC#N)C[C@@H]1N(C)c1ncnc2[nH]ccc12 [Tofacitinib, tofacitinib]
Cmax [1, 13]: 0.135 µM

CC1=C(/C=C/C(C)=C/C=C/C(C)=C/C=C/C=C(C)/C=C/C=C(C)/C=C/C2=C(C)C(=O)[C@@H](O)CC2(C)C)C(C)(C)C[C@H](O)C1=O [astaxanthin]
remdesivir-induced alterations in calcium transient duration (hCMs [3]; 10 × 10^−6 M remdesivir plus 10 × 10^−6 M astaxanthin): reversed
decrease in contractile force induced by remdesivir in hEHTs [10, 15]: significantly resolved
proportion of abnormal beating induced by remdesivir in hEHTs [10, 15]: significantly resolved
cell apoptosis in hEHTs exposed to remdesivir [4, 15]: remarkably decreased
effects on normal hCMs (viability, apoptosis, sarcomere organization) [5]: little effects
frequency of abnormal beating caused by remdesivir (hCMs [6]; 10 × 10^−6 M remdesivir plus 10 × 10^−6 M astaxanthin, 6 days): relieved dramatically
opening of mitochondrial permeability transition pore [12]: inhibit the opening
could alter the level of ROS in hCMs when co-stimulated with remdesivir (hCMs [9]): neither
protective effect against remdesivir compared with the other hits (remdesivir-treated hCMs): most prominent protective effect
remdesivir-induced cardiotoxicity (cell viability), protection (remdesivir-treated hCMs): confirmed to reduce

CON=C(C(=O)NC1C(=O)N2C(C(=O)O)=C(CSC(=O)c3ccco3)CSC12)c1csc(N)n1 (stereo not shown) [ceftiofur hydrochloride]
effects on normal hCMs (viability, apoptosis, sarcomere organization) [5]: little effects
remdesivir-induced cardiotoxicity (cell viability), protection (remdesivir-treated hCMs): confirmed to reduce

CCOC(=O)C1=C[C@@H](OC(CC)CC)[C@H](NC(C)=O)[C@@H](N)C1 [oseltamivir]
associated adverse cardiac effect [2]: tachycardia

OCCOCCN1CCN(C2=Nc3ccccc3Sc3ccccc32)CC1 [quetiapine fumarate]
effects on normal hCMs (viability, apoptosis, sarcomere organization) [5]: little effects
remdesivir-induced cardiotoxicity (cell viability), protection (remdesivir-treated hCMs): confirmed to reduce

N[C@@H](CCC(=O)N[C@@H](CS)C(=O)NCC(=O)O)C(=O)O [reduced L‐Glutathione]
could alter the level of ROS in hCMs when co-stimulated with remdesivir (hCMs [9]): neither

Cc1ncc(C[n+]2csc(CCO)c2C)c(N)n1 [vitamin B1]
could alter the level of ROS in hCMs when co-stimulated with remdesivir (hCMs [9]): neither

O=C1O[C@H]([C@@H](O)CO)C(O)=C1O [vitamin C]
could alter the level of ROS in hCMs when co-stimulated with remdesivir (hCMs [9]): neither

ivermectin
Cmax [1, 13]: 0.049 µM
associated adverse cardiac effect [2]: tachycardia
